ChEMBL document CHEMBL4177690, “(E)-3-(3,4,5-Trimethoxyphenyl)-1-(pyridin-4-yl)prop-2-en-1-one, a heterocyclic chalcone is a potent and selective CYP1A1 inhibitor and cancer chemopreventive agent” (Bioorg Med Chem Lett, 2017)

target: T1, Cytochrome P450 1A1 (Homo sapiens, UniProt P04798); assay: Inhibition of human CYP1A1 expressed in yeast microsomal membranes using 7-ethoxyresorufin as substrate measured after 10 mins by fluorescence assay; assay type: cell membranes
T1 sequence (P04798 whole entry): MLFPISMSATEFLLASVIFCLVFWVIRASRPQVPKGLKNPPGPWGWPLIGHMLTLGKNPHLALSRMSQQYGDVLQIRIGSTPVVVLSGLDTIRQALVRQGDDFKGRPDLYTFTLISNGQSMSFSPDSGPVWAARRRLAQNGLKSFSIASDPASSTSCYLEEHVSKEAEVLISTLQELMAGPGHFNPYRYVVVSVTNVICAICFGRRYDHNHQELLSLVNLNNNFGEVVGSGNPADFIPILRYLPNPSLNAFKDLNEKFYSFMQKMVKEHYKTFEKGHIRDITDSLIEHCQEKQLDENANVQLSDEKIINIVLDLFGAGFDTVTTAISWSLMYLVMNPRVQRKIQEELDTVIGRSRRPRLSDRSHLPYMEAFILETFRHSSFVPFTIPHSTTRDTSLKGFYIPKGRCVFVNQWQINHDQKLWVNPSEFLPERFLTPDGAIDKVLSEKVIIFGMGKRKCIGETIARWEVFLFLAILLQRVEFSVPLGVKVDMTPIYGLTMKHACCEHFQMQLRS

| SMILES | IC50 [µM] |
| --- | --- |
| COc1ccc(/C=C/C(=O)c2ccncc2)c(OC)c1OC | 1.41 |
| COc1cc(/C=C/C(=O)c2ccncc2)cc(OC)c1 | 0.18 |
| CCOc1cc(/C=C/C(=O)c2ccncc2)cc(OCC)c1OCC | 0.092 |

target: T2, Cytochrome P450 1B1 (Homo sapiens, UniProt Q16678); assay: Inhibition of human CYP1B1 expressed in yeast microsomal membranes using 7-ethoxyresorufin as substrate measured after 10 mins by fluorescence assay; assay type: cell membranes
T2 sequence (Q16678 whole entry): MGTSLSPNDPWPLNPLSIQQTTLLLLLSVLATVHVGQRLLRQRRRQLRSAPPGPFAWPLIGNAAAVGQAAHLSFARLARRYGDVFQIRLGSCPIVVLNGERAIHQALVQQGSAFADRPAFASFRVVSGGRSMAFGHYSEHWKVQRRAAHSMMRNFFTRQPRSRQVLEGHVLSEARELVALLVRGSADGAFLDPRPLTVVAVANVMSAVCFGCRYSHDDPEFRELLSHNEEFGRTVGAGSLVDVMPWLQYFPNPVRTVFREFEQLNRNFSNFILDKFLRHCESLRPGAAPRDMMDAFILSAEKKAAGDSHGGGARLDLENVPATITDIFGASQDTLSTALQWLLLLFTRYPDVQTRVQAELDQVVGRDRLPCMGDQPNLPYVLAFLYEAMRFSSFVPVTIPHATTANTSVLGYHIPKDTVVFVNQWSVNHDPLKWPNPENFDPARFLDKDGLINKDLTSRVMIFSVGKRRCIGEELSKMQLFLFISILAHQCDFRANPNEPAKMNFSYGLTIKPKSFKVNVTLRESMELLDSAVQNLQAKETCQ

| SMILES | IC50 [µM] |
| --- | --- |
| COc1ccc(/C=C/C(=O)c2ccncc2)c(OC)c1OC | 0.032 |
| COc1cc(/C=C/C(=O)c2ccncc2)cc(OC)c1 | 0.041 |
| CCOc1cc(/C=C/C(=O)c2ccncc2)cc(OCC)c1OCC | 8.62 |

target: T3, Cytochrome P450 1A2 (Homo sapiens, UniProt P05177); assay: Inhibition of human CYP1A2 expressed in yeast microsomal membranes using 3-cyano-7-ethoxycoumarin as substrate measured after 10 mins by fluorescence assay; assay type: ADME, cell membranes, Microsomal Membrane
T3 sequence (P05177 whole entry): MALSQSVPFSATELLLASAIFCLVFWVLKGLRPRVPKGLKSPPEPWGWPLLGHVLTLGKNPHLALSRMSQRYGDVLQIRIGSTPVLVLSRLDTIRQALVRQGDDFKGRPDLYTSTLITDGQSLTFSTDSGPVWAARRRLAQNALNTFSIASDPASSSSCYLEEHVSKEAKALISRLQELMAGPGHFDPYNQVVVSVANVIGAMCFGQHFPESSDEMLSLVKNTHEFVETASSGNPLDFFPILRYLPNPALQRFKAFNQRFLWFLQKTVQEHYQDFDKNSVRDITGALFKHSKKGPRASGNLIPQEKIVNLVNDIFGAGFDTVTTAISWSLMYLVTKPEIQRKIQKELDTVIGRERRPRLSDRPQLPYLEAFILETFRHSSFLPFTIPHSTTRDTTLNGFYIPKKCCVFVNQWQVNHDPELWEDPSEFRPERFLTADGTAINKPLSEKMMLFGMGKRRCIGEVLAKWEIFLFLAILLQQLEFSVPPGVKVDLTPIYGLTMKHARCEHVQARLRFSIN

| SMILES | IC50 [µM] |
| --- | --- |
| COc1ccc(/C=C/C(=O)c2ccncc2)c(OC)c1OC | 0.104 |
| COc1cc(/C=C/C(=O)c2ccncc2)cc(OC)c1 | 0.028 |
| CCOc1cc(/C=C/C(=O)c2ccncc2)cc(OCC)c1OCC | 1.19 |

target: T4, Cytochrome P450 2D6 (Homo sapiens, UniProt P10635); assay: Inhibition of human CYP2D6 expressed in yeast microsomal membranes using 7-ethoxy-methyloxy-3-cyanocoumarin as substrate measured after 10 mins by fluorescence assay; assay type: ADME, cell membranes, Microsomal Membrane
T4 sequence (P10635 whole entry): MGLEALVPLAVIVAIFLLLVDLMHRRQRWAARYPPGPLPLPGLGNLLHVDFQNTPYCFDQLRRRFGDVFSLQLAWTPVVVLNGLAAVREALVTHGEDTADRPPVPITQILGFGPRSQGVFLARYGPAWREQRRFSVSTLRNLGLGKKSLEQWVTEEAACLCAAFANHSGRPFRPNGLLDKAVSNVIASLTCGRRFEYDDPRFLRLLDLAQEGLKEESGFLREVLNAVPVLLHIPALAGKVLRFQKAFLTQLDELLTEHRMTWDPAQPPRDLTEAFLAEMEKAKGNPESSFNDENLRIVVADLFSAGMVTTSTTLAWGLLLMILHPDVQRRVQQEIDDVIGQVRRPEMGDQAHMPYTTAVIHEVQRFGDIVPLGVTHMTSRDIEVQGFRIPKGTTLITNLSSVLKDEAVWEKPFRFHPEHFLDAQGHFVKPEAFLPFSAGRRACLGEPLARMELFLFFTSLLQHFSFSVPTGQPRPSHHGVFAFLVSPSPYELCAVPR

| SMILES | IC50 [µM] |
| --- | --- |
| COc1ccc(/C=C/C(=O)c2ccncc2)c(OC)c1OC | 11 |
| COc1cc(/C=C/C(=O)c2ccncc2)cc(OC)c1 | 16 |
| CCOc1cc(/C=C/C(=O)c2ccncc2)cc(OCC)c1OCC | 14 |

target: T5, Cytochrome P450 2C9 (Homo sapiens, UniProt P11712); assay: Inhibition of human CYP2C9 expressed in yeast microsomal membranes using 3-cyano-7-ethoxycoumarin as substrate measured after 10 mins by fluorescence assay; assay type: ADME, cell membranes, Microsomal Membrane
T5 sequence (P11712 whole entry): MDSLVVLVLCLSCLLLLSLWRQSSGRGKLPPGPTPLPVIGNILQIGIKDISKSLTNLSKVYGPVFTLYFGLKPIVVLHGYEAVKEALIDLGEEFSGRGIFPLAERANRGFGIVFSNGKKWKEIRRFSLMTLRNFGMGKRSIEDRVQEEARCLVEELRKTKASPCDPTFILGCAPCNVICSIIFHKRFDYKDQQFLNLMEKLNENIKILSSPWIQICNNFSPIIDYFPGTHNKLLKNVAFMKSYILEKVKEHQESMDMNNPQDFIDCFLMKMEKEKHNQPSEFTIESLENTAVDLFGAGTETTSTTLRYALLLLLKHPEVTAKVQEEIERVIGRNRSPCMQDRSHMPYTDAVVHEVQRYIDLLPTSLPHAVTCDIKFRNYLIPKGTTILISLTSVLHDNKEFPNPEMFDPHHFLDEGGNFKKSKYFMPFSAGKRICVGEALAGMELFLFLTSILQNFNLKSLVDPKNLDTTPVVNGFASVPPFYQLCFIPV

| SMILES | IC50 [µM] |
| --- | --- |
| COc1ccc(/C=C/C(=O)c2ccncc2)c(OC)c1OC | > 20 |
| COc1cc(/C=C/C(=O)c2ccncc2)cc(OC)c1 | > 20 |
| CCOc1cc(/C=C/C(=O)c2ccncc2)cc(OCC)c1OCC | > 20 |

target: T6, Cytochrome P450 2C19 (Homo sapiens, UniProt P33261); assay: Inhibition of human CYP2C19 expressed in yeast microsomal membranes using 3-cyano-7-ethoxycoumarin as substrate measured after 10 mins by fluorescence assay; assay type: ADME, cell membranes, Microsomal Membrane
T6 sequence (P33261 whole entry): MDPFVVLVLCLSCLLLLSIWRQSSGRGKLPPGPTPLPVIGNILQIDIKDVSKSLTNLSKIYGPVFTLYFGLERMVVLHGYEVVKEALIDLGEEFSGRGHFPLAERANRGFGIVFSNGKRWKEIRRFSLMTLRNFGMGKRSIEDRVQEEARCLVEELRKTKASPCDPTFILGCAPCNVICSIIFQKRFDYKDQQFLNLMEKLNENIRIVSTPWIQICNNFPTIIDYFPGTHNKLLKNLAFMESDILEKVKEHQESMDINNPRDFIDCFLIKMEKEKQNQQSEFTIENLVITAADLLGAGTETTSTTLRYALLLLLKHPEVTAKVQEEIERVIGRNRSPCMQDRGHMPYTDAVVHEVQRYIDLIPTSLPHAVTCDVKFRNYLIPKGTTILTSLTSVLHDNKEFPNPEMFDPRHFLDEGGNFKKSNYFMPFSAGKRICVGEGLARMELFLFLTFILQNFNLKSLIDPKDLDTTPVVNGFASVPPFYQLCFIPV

| SMILES | IC50 [µM] |
| --- | --- |
| COc1ccc(/C=C/C(=O)c2ccncc2)c(OC)c1OC | > 20 |
| COc1cc(/C=C/C(=O)c2ccncc2)cc(OC)c1 | > 20 |
| CCOc1cc(/C=C/C(=O)c2ccncc2)cc(OCC)c1OCC | > 20 |

target: T7, Cytochrome P450 3A4 (Homo sapiens, UniProt P08684); assay: Inhibition of human CYP3A4 expressed in yeast microsomal membranes using dibenzylfluorescein as substrate measured after 10 mins by fluorescence assay; assay type: ADME, cell membranes, Microsomal Membrane
T7 sequence (P08684 whole entry): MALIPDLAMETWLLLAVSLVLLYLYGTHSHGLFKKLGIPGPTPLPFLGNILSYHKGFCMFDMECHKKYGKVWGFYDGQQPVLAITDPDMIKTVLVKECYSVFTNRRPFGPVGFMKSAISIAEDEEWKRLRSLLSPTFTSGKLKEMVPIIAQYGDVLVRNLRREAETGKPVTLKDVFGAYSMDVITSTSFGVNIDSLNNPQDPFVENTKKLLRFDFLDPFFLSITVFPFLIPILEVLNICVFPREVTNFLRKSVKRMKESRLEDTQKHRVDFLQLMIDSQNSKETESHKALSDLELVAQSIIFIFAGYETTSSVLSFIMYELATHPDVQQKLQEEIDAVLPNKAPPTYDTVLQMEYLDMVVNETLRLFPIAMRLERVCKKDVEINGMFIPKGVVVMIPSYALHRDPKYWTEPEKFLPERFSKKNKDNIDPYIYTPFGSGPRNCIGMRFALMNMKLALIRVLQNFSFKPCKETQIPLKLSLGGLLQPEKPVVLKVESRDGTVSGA

| SMILES | IC50 [µM] |
| --- | --- |
| COc1ccc(/C=C/C(=O)c2ccncc2)c(OC)c1OC | > 20 |
| COc1cc(/C=C/C(=O)c2ccncc2)cc(OC)c1 | > 20 |
| CCOc1cc(/C=C/C(=O)c2ccncc2)cc(OCC)c1OCC | > 20 |

target: T1, Cytochrome P450 1A1; assay: Inhibition of recombinant human CYP1A1 expressed in HEK293 cells using 7-ethoxyresorufin as substrate pretreated for 30 mins followed by substrate addition measured for 60 mins by fluorescence assay; assay type: cell-based

| SMILES | IC50 [µM] |
| --- | --- |
| COc1ccc(/C=C/C(=O)c2ccncc2)c(OC)c1OC | 1.33 |
| COc1cc(/C=C/C(=O)c2ccncc2)cc(OC)c1 | 0.22 |
| CCOc1cc(/C=C/C(=O)c2ccncc2)cc(OCC)c1OCC | 0.092 |

target: T2, Cytochrome P450 1B1; assay: Inhibition of recombinant human CYP1B1 expressed in HEK293 cells using 7-ethoxyresorufin as substrate pretreated for 30 mins followed by substrate addition measured for 60 mins by fluorescence assay; assay type: cell-based

| SMILES | IC50 [µM] |
| --- | --- |
| COc1ccc(/C=C/C(=O)c2ccncc2)c(OC)c1OC | 0.022 |
| COc1cc(/C=C/C(=O)c2ccncc2)cc(OC)c1 | 0.031 |
| CCOc1cc(/C=C/C(=O)c2ccncc2)cc(OCC)c1OCC | 9.92 |

target: T3, Cytochrome P450 1A2; assay: Inhibition of recombinant human CYP1A2 expressed in HEK293 cells using 3-cyano-7-ethoxycoumarin as substrate pretreated for 30 mins followed by substrate addition measured for 60 mins by fluorescence assay; assay type: ADME

| SMILES | IC50 [µM] |
| --- | --- |
| COc1ccc(/C=C/C(=O)c2ccncc2)c(OC)c1OC | 0.2 |
| COc1cc(/C=C/C(=O)c2ccncc2)cc(OC)c1 | 0.028 |
| CCOc1cc(/C=C/C(=O)c2ccncc2)cc(OCC)c1OCC | 1.09 |

target: T4, Cytochrome P450 2D6; assay: Inhibition of recombinant human CYP2D6 expressed in HEK293 cells using 7-ethoxy-methyloxy-3-cyanocoumarin as substrate pretreated for 30 mins followed by substrate addition measured for 60 mins by fluorescence assay; assay type: ADME, cell-based

| SMILES | IC50 [µM] |
| --- | --- |
| COc1ccc(/C=C/C(=O)c2ccncc2)c(OC)c1OC | > 10 |
| COc1cc(/C=C/C(=O)c2ccncc2)cc(OC)c1 | > 10 |
| CCOc1cc(/C=C/C(=O)c2ccncc2)cc(OCC)c1OCC | > 10 |

target: T5, Cytochrome P450 2C9; assay: Inhibition of recombinant human CYP2C9 expressed in HEK293 cells using 3-cyano-7-ethoxycoumarin as substrate pretreated for 30 mins followed by substrate addition measured for 60 mins by fluorescence assay; assay type: ADME

| SMILES | IC50 [µM] |
| --- | --- |
| COc1ccc(/C=C/C(=O)c2ccncc2)c(OC)c1OC | > 10 |
| COc1cc(/C=C/C(=O)c2ccncc2)cc(OC)c1 | > 10 |
| CCOc1cc(/C=C/C(=O)c2ccncc2)cc(OCC)c1OCC | > 10 |

target: T6, Cytochrome P450 2C19; assay: Inhibition of recombinant human CYP2C19 expressed in HEK293 cells using 3-cyano-7-ethoxycoumarin as substrate pretreated for 30 mins followed by substrate addition measured for 60 mins by fluorescence assay; assay type: ADME

| SMILES | IC50 [µM] |
| --- | --- |
| COc1ccc(/C=C/C(=O)c2ccncc2)c(OC)c1OC | > 10 |
| COc1cc(/C=C/C(=O)c2ccncc2)cc(OC)c1 | > 10 |
| CCOc1cc(/C=C/C(=O)c2ccncc2)cc(OCC)c1OCC | > 10 |

target: T7, Cytochrome P450 3A4; assay: Inhibition of recombinant human CYP3A4 expressed in HEK293 cells using dibenzylfluorescein as substrate pretreated for 30 mins followed by substrate addition measured for 60 mins by fluorescence assay; assay type: ADME

| SMILES | IC50 [µM] |
| --- | --- |
| COc1ccc(/C=C/C(=O)c2ccncc2)c(OC)c1OC | > 10 |
| COc1cc(/C=C/C(=O)c2ccncc2)cc(OC)c1 | > 10 |
| CCOc1cc(/C=C/C(=O)c2ccncc2)cc(OCC)c1OCC | > 10 |

species: Homo sapiens; assay: Selectivity ratio of IC50 for recombinant human CYP1B1 expressed in HEK293 cells to IC50 for recombinant human CYP1A1 expressed in HEK293 cells; assay type: cell-based

| SMILES | Ratio IC50 |
| --- | --- |
| CCOc1cc(/C=C/C(=O)c2ccncc2)cc(OCC)c1OCC | < 10 |

species: Homo sapiens; assay: Selectivity ratio of IC50 for recombinant human CYP1A2 expressed in HEK293 cells to IC50 for recombinant human CYP1A1 expressed in HEK293 cells; assay type: cell-based

| SMILES | Ratio IC50 |
| --- | --- |
| CCOc1cc(/C=C/C(=O)c2ccncc2)cc(OCC)c1OCC | < 10 |

target: T8, Aryl hydrocarbon receptor (Homo sapiens, UniProt P35869); assay: Antagonist activity at recombinant human eGFP-fused Ahr expressed in yeast cells co-expressing ARNT assessed as inhibition of benzo(a)pyrene-induced Ahr activation at 1 uM measured after 18 hrs by fluorescence assay; assay type: cell-based
T8 sequence (P35869 whole entry): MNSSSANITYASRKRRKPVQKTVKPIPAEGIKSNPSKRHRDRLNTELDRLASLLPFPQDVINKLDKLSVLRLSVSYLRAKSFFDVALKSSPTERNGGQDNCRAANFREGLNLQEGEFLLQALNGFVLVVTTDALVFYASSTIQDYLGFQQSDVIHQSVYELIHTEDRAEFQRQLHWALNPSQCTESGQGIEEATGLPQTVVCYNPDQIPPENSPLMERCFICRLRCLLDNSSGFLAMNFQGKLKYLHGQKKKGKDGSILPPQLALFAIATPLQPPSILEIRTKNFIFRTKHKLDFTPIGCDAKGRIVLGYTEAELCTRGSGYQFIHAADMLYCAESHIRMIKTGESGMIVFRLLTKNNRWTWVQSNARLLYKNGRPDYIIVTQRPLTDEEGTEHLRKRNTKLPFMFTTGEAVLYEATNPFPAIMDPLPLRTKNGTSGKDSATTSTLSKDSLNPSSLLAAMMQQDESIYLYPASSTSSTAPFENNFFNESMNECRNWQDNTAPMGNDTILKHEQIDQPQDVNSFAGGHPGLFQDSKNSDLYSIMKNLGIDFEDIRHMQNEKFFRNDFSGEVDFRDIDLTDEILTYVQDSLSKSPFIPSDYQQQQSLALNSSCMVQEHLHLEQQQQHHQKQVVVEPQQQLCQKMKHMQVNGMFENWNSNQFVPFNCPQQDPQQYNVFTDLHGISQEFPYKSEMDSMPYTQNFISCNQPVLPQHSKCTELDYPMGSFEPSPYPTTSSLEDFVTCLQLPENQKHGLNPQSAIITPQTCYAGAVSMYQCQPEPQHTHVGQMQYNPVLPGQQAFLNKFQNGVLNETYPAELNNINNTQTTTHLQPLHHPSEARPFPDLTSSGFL

| SMILES | inhibition (INH) |
| --- | --- |
| COc1ccc(/C=C/C(=O)c2ccncc2)c(OC)c1OC | Active |
